Here are results for 63 compounds from the Kinase Knowledgebase extract (Sharma et al. 2016).

As a reminder, the IC50 is the concentration needed to halve the response being measured. High values mean weaker potency, low ones greater potency.

This experiment deals with ROCK2 (human) (UniProt O75116). In words: Inhibition of ROCK2 Kinase Activity.
ROCK2 (human), sequence (O75116 whole entry, looked up): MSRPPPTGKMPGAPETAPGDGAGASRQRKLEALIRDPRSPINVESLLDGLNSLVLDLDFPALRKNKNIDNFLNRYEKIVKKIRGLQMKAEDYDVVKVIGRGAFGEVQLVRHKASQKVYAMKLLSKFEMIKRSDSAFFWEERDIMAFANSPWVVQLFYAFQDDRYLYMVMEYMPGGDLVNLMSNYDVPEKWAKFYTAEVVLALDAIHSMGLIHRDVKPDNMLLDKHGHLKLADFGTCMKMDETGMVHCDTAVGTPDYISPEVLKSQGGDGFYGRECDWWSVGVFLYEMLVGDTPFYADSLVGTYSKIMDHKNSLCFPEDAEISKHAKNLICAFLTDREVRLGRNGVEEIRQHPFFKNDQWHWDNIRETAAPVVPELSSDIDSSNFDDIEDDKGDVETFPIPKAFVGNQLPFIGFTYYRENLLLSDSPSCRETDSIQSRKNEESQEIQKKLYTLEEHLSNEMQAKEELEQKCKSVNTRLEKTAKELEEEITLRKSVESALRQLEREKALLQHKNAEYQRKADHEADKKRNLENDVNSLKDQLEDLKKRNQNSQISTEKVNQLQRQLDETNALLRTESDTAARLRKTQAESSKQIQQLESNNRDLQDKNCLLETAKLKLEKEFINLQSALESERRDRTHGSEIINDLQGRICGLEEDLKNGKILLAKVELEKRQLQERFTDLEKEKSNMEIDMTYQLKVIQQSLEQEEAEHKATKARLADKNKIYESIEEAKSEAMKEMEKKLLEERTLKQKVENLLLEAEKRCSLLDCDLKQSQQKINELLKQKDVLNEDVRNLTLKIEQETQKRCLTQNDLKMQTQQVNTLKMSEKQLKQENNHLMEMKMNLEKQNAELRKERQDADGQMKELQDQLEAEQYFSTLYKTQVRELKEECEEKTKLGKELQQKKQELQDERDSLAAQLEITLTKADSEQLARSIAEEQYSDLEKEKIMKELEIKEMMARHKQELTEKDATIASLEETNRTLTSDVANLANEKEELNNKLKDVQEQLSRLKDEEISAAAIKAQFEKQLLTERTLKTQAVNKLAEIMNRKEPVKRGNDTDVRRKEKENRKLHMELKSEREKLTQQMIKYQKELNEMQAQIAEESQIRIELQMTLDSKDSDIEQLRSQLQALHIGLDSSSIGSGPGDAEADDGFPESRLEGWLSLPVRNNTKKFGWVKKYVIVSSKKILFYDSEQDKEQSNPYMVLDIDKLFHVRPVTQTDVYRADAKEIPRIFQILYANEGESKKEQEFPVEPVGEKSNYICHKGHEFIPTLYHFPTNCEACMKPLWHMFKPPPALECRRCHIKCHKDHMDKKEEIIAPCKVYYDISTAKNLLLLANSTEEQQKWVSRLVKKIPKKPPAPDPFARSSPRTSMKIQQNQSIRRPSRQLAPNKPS
As for `NC(C(=O)N1CCCC1c1cccc(F)c1)c1ccc(C(=O)Nc2ccncc2)cc1` (stereo not drawn), the IC50 was below 500 nM.
Under `NC(C(=O)NCCc1ccc(F)cc1)c1ccc(C(=O)Nc2ccncc2)cc1` (stereo not drawn) stands below 500 nM; under `NC(CC(=O)N1CCc2ccccc2C1)c1ccc(C(=O)Nc2ccncc2)cc1` (stereo not drawn), below 500 nM; under `NC(CNS(=O)(=O)c1cccc2nonc12)c1ccc(C(=O)Nc2ccncc2)cc1` (stereo not drawn), below 500 nM.
As for `NC(CC(=O)N1CCOCC1)c1ccc(C(=O)Nc2ccncc2)cc1` (stereo not drawn), the IC50 is below 500 nM.
Under `NC(C(=O)NCCN1CCOCC1)c1ccc(C(=O)Nc2ccncc2)cc1` (stereo not drawn) stands 500 to 5000 nM; under `COCC(C)NC(=O)C(N)c1ccc(C(=O)Nc2ccncc2)cc1` (stereo not drawn), 500 to 5000 nM; under `COc1ccc(S(=O)(=O)N(C)CC(N)c2ccc(C(=O)Nc3ccncc3)cc2)cc1` (stereo not drawn), below 500 nM.
Under `NC(CC(=O)N1CCN(CCO)CC1)c1ccc(C(=O)Nc2ccncc2)cc1` (stereo not drawn) stands below 500 nM; under `NC(C(=O)NC1CCN(Cc2ccccc2)CC1)c1ccc(C(=O)Nc2ccncc2)cc1` (stereo not drawn), 500 to 5000 nM.
`NC(CC(=O)N1CCN(Cc2ccc(F)cc2)CC1)c1ccc(C(=O)Nc2ccncc2)cc1` (stereo not drawn) returned an IC50 below 500 nM.
`CS(=O)(=O)NCC(N)c1ccc(C(=O)Nc2ccncc2)cc1` (stereo not drawn) registered an IC50 below 500 nM.
Compound `NC(CC(=O)N1CCc2c(Cl)cccc2C1)c1ccc(C(=O)Nc2ccncc2)cc1` (stereo not drawn) had a half-maximal inhibitory concentration (IC50) below 500 nM.
As to `CN(CC(N)c1ccc(C(=O)Nc2ccncc2)cc1)S(=O)(=O)c1ccc(Cl)cc1` (stereo not drawn), the IC50 is 500 to 5000 nM.
Under `NC(CC(=O)N1CC=C(c2ccc(F)cc2)CC1)c1ccc(C(=O)Nc2ccncc2)cc1` (stereo not drawn) stands below 500 nM; under `NC(C(=O)NCc1ccccn1)c1ccc(C(=O)Nc2ccncc2)cc1` (stereo not drawn), 500 to 5000 nM.
Under `COc1ccc(C2c3[nH]c4ccccc4c3CCN2C(=O)CC(N)c2ccc(C(=O)Nc3ccncc3)cc2)cc1Br` (stereo not drawn) stands 500 to 5000 nM.
The compound `NC(CNS(=O)(=O)c1cccs1)c1ccc(C(=O)Nc2ccncc2)cc1` (stereo not drawn) yielded an IC50 below 500 nM.
Under `NC(CC(=O)N1CCC(c2nc3ccccc3o2)CC1)c1ccc(C(=O)Nc2ccncc2)cc1` (stereo not drawn) stands below 500 nM; under `NC(CC(=O)N1CCOCC1c1ccccc1)c1ccc(C(=O)Nc2ccncc2)cc1` (stereo not drawn), below 500 nM.
Under `NC(C(=O)NCCc1ccccc1)c1ccc(C(=O)Nc2ccncc2)cc1` (stereo not drawn) stands below 500 nM.
Under `NC(C(=O)NCCn1cccn1)c1ccc(C(=O)Nc2ccncc2)cc1` (stereo not drawn) stands 500 to 5000 nM; under `NC(CC(=O)N1CCc2ccc(Cl)cc2C1)c1ccc(C(=O)Nc2ccncc2)cc1` (stereo not drawn), below 500 nM.
`Cc1noc(C)c1S(=O)(=O)NCC(N)c1ccc(C(=O)Nc2ccncc2)cc1` (stereo not drawn) gave an IC50 below 500 nM.
Under `NC(CNS(=O)(=O)c1ccc(-c2ccccc2)cc1)c1ccc(C(=O)Nc2ccncc2)cc1` (stereo not drawn) stands 500 to 5000 nM; under `CN(CC(N)c1ccc(C(=O)Nc2ccncc2)cc1)S(=O)(=O)c1ccccc1F` (stereo not drawn), 500 to 5000 nM; under `CC1CC(C)CN(C(=O)CC(N)c2ccc(C(=O)Nc3ccncc3)cc2)C1` (stereo not drawn), below 500 nM.
`CN(CC(N)c1ccc(C(=O)Nc2ccncc2)cc1)S(=O)(=O)c1cccc(Cl)c1` (stereo not drawn) returned an IC50 of 500 to 5000 nM.
Under `NC(CC(=O)N1CCCC1c1cc(F)ccc1F)c1ccc(C(=O)Nc2ccncc2)cc1` (stereo not drawn) stands below 500 nM; under `Cc1ccc(S(=O)(=O)NCC(N)c2ccc(C(=O)Nc3ccncc3)cc2)cc1` (stereo not drawn), below 500 nM; under `CC(C)N1CCN(C(=O)C(N)c2ccc(C(=O)Nc3ccncc3)cc2)CC1` (stereo not drawn), 500 to 5000 nM.
Under `NC(CC(=O)N1CCOCC1c1ccc(Cl)cc1)c1ccc(C(=O)Nc2ccncc2)cc1` (stereo not drawn) stands below 500 nM; under `NC(C(=O)NCCc1cccs1)c1ccc(C(=O)Nc2ccncc2)cc1` (stereo not drawn), below 500 nM.
Under `NC(CNS(=O)(=O)c1cccc2nsnc12)c1ccc(C(=O)Nc2ccncc2)cc1` (stereo not drawn) stands below 500 nM; under `NC(CC(=O)N1CCc2ccc(F)cc2C1)c1ccc(C(=O)Nc2ccncc2)cc1` (stereo not drawn), below 500 nM; under `N[C@H](C(=O)NCc1ccccc1)c1ccc(C(=O)Nc2ccncc2)cc1`, below 500 nM.
Take `N[C@@H](CC(=O)N1CCC[C@H]1c1cccc(F)c1)c1ccc(C(=O)Nc2ccncc2)cc1`: the IC50 is below 500 nM.
Under `NC(C(=O)N1CCc2ccccc2C1)c1ccc(C(=O)Nc2ccncc2)cc1` (stereo not drawn) stands below 500 nM; under `NC(C(=O)NCc1ccccc1)c1ccc(C(=O)Nc2ccncc2)cc1` (stereo not drawn), below 500 nM.
Under `NC(c1ccc(C(=O)Nc2ccncc2)cc1)C1CCCN1S(=O)(=O)c1ccccc1F` (stereo not drawn) stands 500 to 5000 nM; under `NC(CNS(=O)(=O)c1ccc(Cl)cc1)c1ccc(C(=O)Nc2ccncc2)cc1` (stereo not drawn), below 500 nM.
Under `CC1CN(C(=O)CC(N)c2ccc(C(=O)Nc3ccncc3)cc2)CC(C)O1` (stereo not drawn) stands below 500 nM; under `NC(c1ccc(C(=O)Nc2ccncc2)cc1)C1CCCN1S(=O)(=O)c1ccc(F)cc1` (stereo not drawn), 500 to 5000 nM.
Take `COc1ccc(S(=O)(=O)NCC(N)c2ccc(C(=O)Nc3ccncc3)cc2)cc1` (stereo not drawn): the IC50 is below 500 nM.
Under `CN(CC(N)c1ccc(C(=O)Nc2ccncc2)cc1)S(=O)(=O)c1ccc(F)cc1` (stereo not drawn) stands 500 to 5000 nM; under `NC(C(=O)N1CCCC(CO)C1)c1ccc(C(=O)Nc2ccncc2)cc1` (stereo not drawn), 500 to 5000 nM.
Under `NC(C(=O)N1CCC(Cc2ccccc2)CC1)c1ccc(C(=O)Nc2ccncc2)cc1` (stereo not drawn) stands 500 to 5000 nM.
In the case of `NC(c1ccc(C(=O)Nc2ccncc2)cc1)C1CCCN1S(=O)(=O)c1ccc(Cl)cc1` (stereo not drawn), the IC50 lay in the range of 500 to 5000 nM.
Turning to `NC(CC(=O)N1CCC(c2c[nH]c3ccccc23)CC1)c1ccc(C(=O)Nc2ccncc2)cc1` (stereo not drawn), the IC50 was below 500 nM.
With `NC(C(=O)NCc1ccco1)c1ccc(C(=O)Nc2ccncc2)cc1` (stereo not drawn), the IC50 is below 500 nM.
`N[C@H](CC(=O)N1CCC[C@@H]1c1cccc(F)c1)c1ccc(C(=O)Nc2ccncc2)cc1` had an IC50 below 500 nM.
Under `N[C@@H](C(=O)NCc1ccccc1)c1ccc(C(=O)Nc2ccncc2)cc1` stands 500 to 5000 nM; under `CN(CCO)C(=O)C(N)c1ccc(C(=O)Nc2ccncc2)cc1` (stereo not drawn), 500 to 5000 nM.
Under `COc1ccc(S(=O)(=O)NCC(N)c2ccc(C(=O)Nc3ccncc3)cc2)cc1OC` (stereo not drawn) stands below 500 nM; under `CS(=O)(=O)NCCNC(=O)C(N)c1ccc(C(=O)Nc2ccncc2)cc1` (stereo not drawn), 500 to 5000 nM.
On to `CCC(C)(C)NC(=O)C(N)c1ccc(C(=O)Nc2ccncc2)cc1` (stereo not drawn), for which the IC50 was 500 to 5000 nM.
`NC(CC(=O)N1CCc2c([nH]c3ccccc23)C1)c1ccc(C(=O)Nc2ccncc2)cc1` (stereo not drawn) showed an IC50 below 500 nM.
Under `COC(=O)c1ccc(C2CCCCN2C(=O)CC(N)c2ccc(C(=O)Nc3ccncc3)cc2)cc1` (stereo not drawn) stands below 500 nM.
Under `NC(c1ccc(C(=O)Nc2ccncc2)cc1)C1CCCN1S(=O)(=O)c1cccc(Cl)c1` (stereo not drawn) stands 500 to 5000 nM; under `CN(CC(N)c1ccc(C(=O)Nc2ccncc2)cc1)S(=O)(=O)c1cccc(F)c1` (stereo not drawn), 500 to 5000 nM.
Under `NC(C(=O)NC1Cc2ccccc2C1)c1ccc(C(=O)Nc2ccncc2)cc1` (stereo not drawn) stands below 500 nM; under `NC(C(=O)N1CCN(Cc2ccccc2F)CC1)c1ccc(C(=O)Nc2ccncc2)cc1` (stereo not drawn), 500 to 5000 nM; under `COc1cccc(C2CCCCN2C(=O)CC(N)c2ccc(C(=O)Nc3ccncc3)cc2)c1` (stereo not drawn), below 500 nM.
